Assay results reported in US20230212638A1 (priority 2020, published 2023).

Legend:
Type in all cases: cell-based
[1] = tested on: NBRC12993 (Staphylococcus epidermidis control strain); assay: Drug sensitivity of Staphylococcus epidermidis NBRC12993 by resonance frequency shift on GHz array sensor; details: PIPC 10.0 μg/mL
Excerpt: By using NBRC12993 being a control strain of Staphylococcus epidermidis, the inventors conducted verification experiments of growth and drug sensitivity of Staphylococcus epidermidis by the test method above.
In this experiment, piperacillin (penicillin) being a time-dependent drug was used. That is, this drug exerts an inhibitory action on growth by retaining the effective drug concentration for a certain period of time. A control sample of NBRC12993 was mixed with piperacillin (PIPC) to prepare a sample for drug sensitivity evaluation at a […] concentration of 10.0 μg/mL (PIPC 10.0 μg/mL). Further, in order to verify the frequency shift of a killed bacterium, a sample was prepared by subjecting 200 μL of a control sample to heat treatment at 98° C. for 30 minutes.
The samples thus prepared were introduced into different containers 60, respectively, and the frequency shift was measured for each sample. In this case, capping solvent 300 was not added into each container 60. The temperatures of an incubator and a Peltier element during the measurement were set in a similar manner to Example 1 above. In analysis processing, frequency shifts of all the 1488 elements on array sensor 10 were measured every 10 seconds, the average value of the measured frequency shifts was calculated every 5 minutes, and extracted as the frequency shift at each timing of the measurement. In addition to this, in Example 3, a region where the growth of Staphylococcus epidermidis was observed was designated on the display image, and the average value of the frequency shifts in this growth region was calculated every 5 minutes. […]
Further, FIG. 12(b) is a display image showing a frequency shift of each element by color when a control sample to which PIPC was not added was measured at the time point after the lapse of 240 minutes, and FIG. 12(c) is a display image showing a frequency shift of each element by color when a sample for drug sensitivity evaluation to which PIPC was added (PIPC 10.0 μg/mL) was measured at the time point after the lapse of 240 minutes. […]

[2] = tested on: BCG (Mycobacterium bovis); details: SM sample: 196 μL control sample + 4 μL SM at 25 mg/mL; 20 elements; 12 hours; 37° C.; FIG. 10(b)
[3] = tested on: NBRC3301 (Escherichia coli control strain); assay: Drug sensitivity of Escherichia coli NBRC3301 by resonance frequency shift on GHz array sensor
Protocol: By using NBRC3301 as a control strain of Escherichia coli, the inventors conducted verification experiments of growth and drug sensitivity of Escherichia coli by the test method above.
In this experiment, streptomycin (aminoglycoside) being a concentration-dependent drug was used. 196 μL of a control sample of NBRC3301 was mixed with 4 μL of SM at a concentration of 25 mg/mL to prepare a sample for drug sensitivity evaluation at a SM concentration of 500 μg/mL (SM_500 μg/mL). Further, the amount of the SM to be added to the control sample was adjusted to prepare a sample for drug sensitivity evaluation at a SM concentration of 250 μg/mL (SM_250 μg/mL) and a sample for drug sensitivity evaluation at a SM concentration of 125 μg/mL (SM_125 μg/mL). Furthermore, in order to verify the frequency shift of a killed bacterium, a sample was prepared by subjecting 200 μL of a control sample to heat treatment at 98° C. for 30 minutes. […]
The samples thus prepared were introduced into different containers 60, respectively, and the frequency shift was measured for each sample. […] In analysis processing, frequency shifts of all the 1488 elements on array sensor 10 were measured every 10 seconds, the average value of the measured frequency shifts was calculated every 5 minutes, and extracted as the frequency shift at each timing of the measurement. […]

Compound | increase in the frequency shift with the lapse of time ([1]; 240 minutes, no capping solvent, compared with heat-treated killed bacteria, FIG. 12(a)) | time from start of measurement until which the frequency shift increased, decreasing trend thereafter (time-dependent action) ([1]; FIG. 12(a)) | frequency shift of each element in display image ([1]; after the lapse of 240 minutes, FIG. 12(c)) | growth of BCG reflected on the frequency shift of each element [2] | frequency shift of each element in display image ([3]; SM 500 μg/mL, after the lapse of 60 minutes, FIG. 11(c)) | increase in the frequency shift with the lapse of time, compared with control sample ([3]; SM 500, 250 and 125 μg/mL, average of all 1488 elements, 60 minutes, no capping solvent, suppression greater at higher concentration, FIG. 11(a))
CCN1CCN(C(=O)N[C@@H](C(=O)N[C@@H]2C(=O)N3[C@@H]2SC(C)(C)[C@@H]3C(=O)O)c2ccccc2)C(=O)C1=O [PIPC, piperacillin] | the increase in the frequency shift was suppressed more than that in the case where heat treatment was performed | around 120 minutes | the frequency shifts of all the elements were uniformly suppressed low |  |  | 
[H]/N=C(/N)N[C@H]1[C@H](O)[C@@H](O)[C@H](O[C@@H]2O[C@@H](C)[C@](O)(C=O)[C@H]2O[C@@H]2O[C@@H](CO)[C@H](O)[C@@H](O)[C@@H]2NC)[C@@H](N/C(N)=N\[H])[C@@H]1O [SM, streptomycin] |  |  |  | growth of BCG was suppressed | the frequency shifts of all the elements were uniformly suppressed low | the increase in the frequency shift was suppressed
